For orientation: IC50 means the concentration needed to halve the response being measured.

The values that follow come from patent US12624018B1, “Inhibitors of RIPK2 and medical uses thereof” (Odyssey Therapeutics, Inc., priority 2022, dated 2026).

In this assay the target is T1, RIPK2 enzyme (Homo sapiens, UniProt O43353).
T1 construct: purchased Carna 09-128
Kind of assay: RIPK2 inhibition (ADP-Glo Kinase Assay). It counts as biochemical. Particulars: RIPK2 5 nM, ATP 150 μM, MBP substrate, read-out: RIPK2 IC50. In short, it runs like this: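 Swine MBP substrate; compound and 5 nM RIPK2 first mixed for 30 min at room temperature; buffer pH 7.5 HEPES 50 mM with 10 mM MgCl2, 2 mM DTT, 1 mM EGTA, Brij-35, BSA.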
In general terms: In ADP-Glo the light output rises with the ADP produced.

T1 sequence (O43353 1-299 limits assumed): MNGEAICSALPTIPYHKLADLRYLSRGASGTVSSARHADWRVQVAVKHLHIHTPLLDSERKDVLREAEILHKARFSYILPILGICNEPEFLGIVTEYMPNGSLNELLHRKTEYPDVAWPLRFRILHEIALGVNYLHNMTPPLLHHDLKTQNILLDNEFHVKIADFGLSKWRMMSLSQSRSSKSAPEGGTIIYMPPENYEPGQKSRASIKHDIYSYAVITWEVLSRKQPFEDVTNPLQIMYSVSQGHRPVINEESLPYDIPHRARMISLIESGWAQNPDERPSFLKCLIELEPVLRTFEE

With `[2H]C([2H])([2H])N1CCC(Oc2ccc3nccc(Oc4cnc(CC(=O)Nc5cnn(C(C)(C)C)c5)c(F)c4)c3c2)CC1` [Compound 129, N-(1-(tert-butyl)-1H-pyrazol-4-yl)-2-(3-fluoro-5-((6-((1-(methyl-d3)piperidin-4-yl)oxy)quinolin-4-yl)oxy)pyridin-2-yl) acetamide], the IC50 worked out at 4.4 nM.
Regarding `CCS(=O)(=O)c1ccc2nccc(Oc3ccc(CC(=O)Nc4cnn(C(C)(C)C)c4)c(F)c3)c2c1` [Compound 130, N-(1-(tert-butyl)-1H-pyrazol-4-yl)-2-(4-((6-(ethylsulfonyl)quinolin-4-yl)oxy)-2-fluorophenyl)acetamide], the IC50 was < 2.5 nM.
With `CC(C)(C)n1cc(NC(=O)Cc2ccc(Oc3ccnc4ccc(S(=O)(=O)C5CC5)cc34)cc2F)cn1` [Compound 131, N-(1-(tert-butyl)-1H-pyrazol-4-yl)-2-(4-((6-(cyclopropylsulfonyl)quinolin-4-yl)oxy)-2-fluorophenyl)acetamide], the IC50 is < 2.5 nM.
Take `CC(C)(C)n1cc(NC(=O)Cc2ccc(Oc3ccnc4ccc(S(=O)(=O)C5COC5)cc34)cc2F)cn1` [Compound 132, N-(1-(tert-butyl)-1H-pyrazol-4-yl)-2-(2-fluoro-4-((6-(oxetan-3-ylsulfonyl)quinolin-4-yl)oxy)phenyl)acetamide]: the IC50 is < 2.5 nM.
As for `CC(C)(C)n1cc(NC(=O)Cc2ccc(Oc3ncnc4ccc(OC5CCOCC5)cc34)cc2F)cn1` [Compound 133, N-(1-(tert-butyl)-1H-pyrazol-4-yl)-2-(2-fluoro-4-((6-((tetrahydro-2H-pyran-4-yl)oxy)quinazolin-4-yl)oxy)phenyl) acetamide], the IC50 worked out at 10.9 nM.
In the case of `CN1CCC(Oc2ccc3nccc(Oc4cnc(CC(=O)Nc5cc(C(C)(C)C)[nH]n5)c(F)c4)c3c2)CC1` [Compound 134, N-(5-(tert-butyl)-1H-pyrazol-3-yl)-2-(3-fluoro-5-((6-((1-methylpiperidin-4-yl)oxy)quinolin-4-yl)oxy)pyridin-2-yl)acetamide], the IC50 was < 2.5 nM.
Turning to `CC(C)(C)c1cc(NC(=O)Cc2ncc(Oc3ccnc4ccc(OC5CCNCC5)cc34)cc2F)n[nH]1` [Compound 135, N-(5-(tert-butyl)-1H-pyrazol-3-yl)-2-(3-fluoro-5-((6-(piperidin-4-yloxy)quinolin-4-yl)oxy)pyridin-2-yl)acetamide], the IC50 was < 2.5 nM.
For `CN1CCC(Oc2ccc3nccc(Oc4ccc(CC(=O)Nc5cc(C(C)(C)C)[nH]n5)c(F)c4)c3c2)CC1` [Compound 136, N-(5-(tert-butyl)-1H-pyrazol-3-yl)-2-(2-fluoro-4-((6-((1-methyl-piperidin-4-yl)oxy)quinolin-4-yl)oxy)phenyl) acetamide], the concentration for half-maximal inhibition (IC50) was < 2.5 nM.
Next, `CC(C)(C)c1cc(NC(=O)Cc2ccc(Oc3ccnc4ccc(OC5CCNCC5)cc34)cc2F)n[nH]1` [Compound 137, N-(5-(tert-butyl)-1H-pyrazol-3-yl)-2-(2-fluoro-4-((6-(piperidin-4-yloxy)quinolin-4-yl)oxy)phenyl) acetamide]: < 2.5 nM; `COC(C)(C)c1ccc2nccc(Oc3cnc(CC(=O)Nc4cnn(C(C)(C)C)c4)c(F)c3)c2c1` [Compound 138, N-(1-(tert-butyl)-1H-pyrazol-4-yl)-2-(3-fluoro-5-((6-(2-methoxypropan-2-yl)quinolin-4-yl)oxy)pyridin-2-yl)acetamide]: 5.2 nM; `CN1CCC(Cc2ccc3nccc(Oc4cnc(CC(=O)Nc5cnn(C(C)(C)C)c5)c(F)c4)c3c2)CC1` [Compound 139, N-(1-(tert-butyl)-1H-pyrazol-4-yl)-2-(3-fluoro-5-((6-((1-methylpiperidin-4-yl)methyl)quinolin-4-yl)oxy)pyridin-2-yl)acetamide]: 3.2 nM.
As to `[2H]C([2H])([2H])n1nc(NC(=O)Cc2ccc(Oc3ccnc4ccc(S(C)(=O)=O)cc34)cc2F)cc1C(C)(C)C` [Compound 142, N-(5-(tert-butyl)-1-(methyl-d3)-1H-pyrazol-3-yl)-2-(2-fluoro-4-((6-(methylsulfonyl)quinolin-4-yl)oxy)phenyl)acetamide], the IC50 is < 2.5 nM.
Turning to `CC(C)c1cc(NC(=O)Cc2ccc(Oc3ccnc4ccc(S(C)(=O)=O)cc34)cc2F)n[nH]1` [Compound 143, 2-(2-fluoro-4-((6-(methylsulfonyl)quinolin-4-yl)oxy)phenyl)-N-(5-isopropyl-1H-pyrazol-3-yl)acetamide], the IC50 is < 2.5 nM.
`CC(C)c1cc(NC(=O)Cc2ccc(Oc3ccnc4ccc(S(C)(=O)=O)cc34)cc2F)nn1C` [Compound 144, 2-(2-fluoro-4-((6-(methylsulfonyl)quinolin-4-yl)oxy)phenyl)-N-(5-isopropyl-1-methyl-1H-pyrazol-3-yl)acetamide]: the IC50 was < 2.5 nM.
In the case of `CS(=O)(=O)c1ccc2nccc(Oc3ccc(CC(=O)Nc4cc(C5CC5)[nH]n4)c(F)c3)c2c1` [Compound 145, N-(5-cyclopropyl-1H-pyrazol-3-yl)-2-(2-fluoro-4-((6-(methylsulfonyl)quinolin-4-yl)oxy)phenyl)acetamide], the IC50 was found to be 3.1 nM.
For the compound `Cn1nc(NC(=O)Cc2ccc(Oc3ccnc4ccc(S(C)(=O)=O)cc34)cc2F)cc1C1CC1` [Compound 146, N-(5-cyclopropyl-1-methyl-1H-pyrazol-3-yl)-2-(2-fluoro-4-((6-(methylsulfonyl)quinolin-4-yl)oxy)phenyl)acetamide], the IC50 was < 2.5 nM.
For `CCn1nc(NC(=O)Cc2ccc(Oc3ccnc4ccc(S(C)(=O)=O)cc34)cc2F)cc1C(C)(C)C` [Compound 147, N-(5-(tert-butyl)-1-ethyl-1H-pyrazol-3-yl)-2-(2-fluoro-4-((6-(methylsulfonyl)quinolin-4-yl)oxy)phenyl)acetamide], the IC50 was < 2.5 nM.
As for `CCn1nc(NC(=O)Cc2ccc(Oc3ccnc4ccc(S(C)(=O)=O)cc34)cc2F)cc1C(C)C` [Compound 148, N-(1-ethyl-5-isopropyl-1H-pyrazol-3-yl)-2-(2-fluoro-4-((6-(methylsulfonyl)quinolin-4-yl)oxy)phenyl)acetamide], the IC50 is < 2.5 nM.
`Cc1cc(CC(=O)Nc2cnn(C(C)(C)C)c2)ccc1Oc1ccnc2ccc(S(=O)(=O)C3CN(C)C3)cc12` [Compound 149, N-(1-(tert-butyl)-1H-pyrazol-4-yl)-2-(3-methyl-4-((6-((1-methylazetidin-3-yl)sulfonyl)quinolin-4-yl)oxy)phenyl)acetamide]: the IC50 is < 2.5 nM.
Next, `CC(=O)N1CCC(Oc2ccc3nccc(Oc4cnc(CC(=O)Nc5cnn(C(C)(C)C)c5)c(F)c4)c3c2)CC1` [Compound 150, 2-(5-((6-((1-acetylpiperidin-4-yl)oxy)quinolin-4-yl)oxy)-3-fluoropyridin-2-yl)-N-(1-(tert-butyl)-1H-pyrazol-4-yl)acetamide]: 4.1 nM; `CC(=O)N1CCC(Oc2ccc3nccc(Oc4ccc(CC(=O)Nc5cnn(C(C)(C)C)c5)c(F)c4)c3c2)CC1` [Compound 151, 2-(4-((6-((1-acetyl-piperidin-4-yl)oxy)quinolin-4-yl)oxy)-2-fluoro-phenyl)-N-(1-(tert-butyl)-1H-pyrazol-4-yl)acetamide]: < 2.5 nM.
Consider `CC(C)(C)n1cc(NC(=O)Cc2ccc(Oc3ccnc4ccc(N5CCCC5=O)cc34)cc2F)cn1` [Compound 152, N-(1-(tert-butyl)-1H-pyrazol-4-yl)-2-(2-fluoro-4-((6-(2-oxopyrrolidin-1-yl)quinolin-4-yl)oxy)phenyl) acetamide], for which the 50% inhibitory concentration (IC50) is < 2.5 nM.
In the case of `CC(C)(C)n1cc(NC(=O)Cc2ccc(Oc3ccnc4ccc(N5CCCCC5=O)cc34)cc2F)cn1` [Compound 153, N-(1-(tert-butyl)-1H-pyrazol-4-yl)-2-(2-fluoro-4-((6-(2-oxopiperidin-1-yl)quinolin-4-yl)oxy)phenyl) acetamide], the IC50 came out at 2.7 nM.
For the compound `CC(C)(C)n1cc(NC(=O)Cc2ccc(Oc3ccnc4ccc(N5CCOCC5=O)cc34)cc2F)cn1` [Compound 154, N-(1-(tert-butyl)-1H-pyrazol-4-yl)-2-(2-fluoro-4-((6-(3-oxomorpholino)quinolin-4-yl)oxy)phenyl) acetamide], the IC50 is < 2.5 nM.
For the compound `CC(C)(C)n1cc(NC(=O)Cc2ccc(Oc3ccnc4ccc(N5CCNCC5=O)cc34)cc2F)cn1` [Compound 155, N-(1-(tert-butyl)-1H-pyrazol-4-yl)-2-(2-fluoro-4-((6-(2-oxopiperazin-1-yl)quinolin-4-yl)oxy)phenyl) acetamide], the IC50 is 2.5 nM.
Regarding `CN1CCN(c2ccc3nccc(Oc4ccc(CC(=O)Nc5cnn(C(C)(C)C)c5)c(F)c4)c3c2)C(=O)C1` [Compound 156, N-(1-(tert-butyl)-1H-pyrazol-4-yl)-2-(2-fluoro-4-((6-(4-methyl-2-oxopiperazin-1-yl)quinolin-4-yl)oxy)phenyl) acetamide], the IC50 was 4.5 nM.
`CC(C)(C)n1cc(NC(=O)Cc2ccc(Oc3ccnc4ccc(-n5ccccc5=O)cc34)cc2F)cn1` [Compound 157, N-(1-(tert-butyl)-1H-pyrazol-4-yl)-2-(2-fluoro-4-((6-(2-oxopyridin-1(2H)-yl)quinolin-4-yl)oxy)phenyl) acetamide]: the IC50 was determined as 5.2 nM.
With `CC(C)(C)n1cc(NC(=O)Cc2ccc(Oc3ncnc4ccc(OC5CCNCC5)cc34)c(Cl)c2)cn1` [Compound 158, N-(1-(tert-butyl)-1H-pyrazol-4-yl)-2-(3-chloro-4-((6-(piperidin-4-yloxy)quinazolin-4-yl)oxy)phenyl) acetamide], the IC50 is < 2.5 nM.
For `CN1CCC(Oc2ccc3ncnc(Oc4ccc(CC(=O)Nc5cnn(C(C)(C)C)c5)cc4Cl)c3c2)CC1` [Compound 159, N-(1-(tert-butyl)-1H-pyrazol-4-yl)-2-(3-chloro-4-((6-((1-methyl-piperidin-4-yl)oxy)quinazolin-4-yl)oxy)phenyl) acetamide] the value was < 2.5 nM; for `CCN1CCC(Oc2ccc3ncnc(Oc4ccc(CC(=O)Nc5cnn(C(C)(C)C)c5)cc4Cl)c3c2)CC1` [Compound 160, N-(1-(tert-butyl)-1H-pyrazol-4-yl)-2-(3-chloro-4-((6-((1-ethyl-piperidin-4-yl)oxy)quinazolin-4-yl)oxy)phenyl) acetamide], < 2.5 nM.
